Laboratory results taken from ChEMBL document CHEMBL1201862, “PubChem BioAssay data set” (2004).
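Test compounds were applied to cells in 96-well plates for 48 hours at 5 doses. GI50 = concentration required for 50% inhibition of growth.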 Active and inactive are the calls of the source. Rule as the data show it: active = GI50 up to about 1.1 µM and inactive = higher. Peptide text beside a SMILES is read from it. * marks the point of attachment. Cbz = O=C(OCc1ccccc1)*; CH2Cl = ClC*

Legend:
Assay in all cases: NCI tumour cell line growth inhibition, 48 h
HOP-92 = test system: HOP-92
TK-10 = test system: TK-10
NCI-H522 = test system: NCI-H522
NCI-H23 = test system: NCI-H23
K562 = test system: K562
IGROV-1 = test system: IGROV-1
A549 = test system: A549
MDA-N = test system: MDA-N
RXF 393 = test system: RXF 393
A498 = test system: A498
RPMI-8226 = test system: RPMI-8226
MOLT-4 = test system: MOLT-4
HT-29 = test system: HT-29
DU-145 = test system: DU-145
HCT-116 = test system: HCT-116
CCRF-CEM = test system: CCRF-CEM
EKVX = test system: EKVX
UACC-62 = test system: UACC-62
HL-60 = test system: HL-60
DMS-114 = test system: DMS-114

SMILES	GI50 (HOP-92)	GI50 (TK-10)	GI50 (NCI-H522)	GI50 (NCI-H23)	GI50 (K562)	GI50 (IGROV-1)	GI50 (A549)	GI50 (MDA-N)	GI50 (RXF 393)	GI50 (A498)	GI50 (RPMI-8226)	GI50 (MOLT-4)	GI50 (HT-29)	GI50 (DU-145)	GI50 (HCT-116)	GI50 (CCRF-CEM)	GI50 (EKVX)	GI50 (UACC-62)	GI50 (HL-60)	GI50 (DMS-114)
Cc1ccc(C2NC(=O)c3ccccc3N2)c(C)c1 (stereo not given)	9.53 µM (inactive)	7.33 µM (inactive)	1.88 µM (inactive)	7.14 µM (inactive)	0.378 µM (active)	4.62 µM (inactive)	5.65 µM (inactive)	0.174 µM (active)	3.91 µM (inactive)	5.04 µM (inactive)	0.807 µM (active)	0.736 µM (active)	2.19 µM (inactive)	5.71 µM (inactive)	2.39 µM (inactive)	1.63 µM (inactive)	8.17 µM (inactive)	1.26 µM (inactive)	0.453 µM (active)	–
CC1=NN=C(N)N/C1=C\C(Sc1ccc(Cl)cc1)c1ccc([N+](=O)[O-])cc1 (stereo not given)	> 100 µM (inactive)	> 100 µM (inactive)	26.9 µM (inactive)	80.9 µM (inactive)	62.4 µM (inactive)	39.1 µM (inactive)	> 100 µM (inactive)	89.1 µM (inactive)	> 100 µM (inactive)	> 100 µM (inactive)	35.6 µM (inactive)	93.5 µM (inactive)	> 100 µM (inactive)	> 100 µM (inactive)	39.8 µM (inactive)	27.5 µM (inactive)	71.8 µM (inactive)	91.6 µM (inactive)	32.8 µM (inactive)	–
CC(C)(C)C(=O)Nc1ccccc1Br	> 100 µM (inactive)	> 100 µM (inactive)	–	–	> 100 µM (inactive)	> 100 µM (inactive)	> 100 µM (inactive)	–	> 100 µM (inactive)	–	> 100 µM (inactive)	> 100 µM (inactive)	> 100 µM (inactive)	–	> 100 µM (inactive)	> 100 µM (inactive)	> 100 µM (inactive)	> 100 µM (inactive)	> 100 µM (inactive)	> 100 µM (inactive)
N#Cc1ccc(NC(=O)C(CC(=O)OCc2ccccc2)NC(=O)OCc2ccccc2)cc1 (stereo not given)	> 10 µM (inactive)	> 10 µM (inactive)	> 10 µM (inactive)	> 10 µM (inactive)	> 10 µM (inactive)	> 10 µM (inactive)	> 10 µM (inactive)	> 10 µM (inactive)	> 10 µM (inactive)	> 10 µM (inactive)	> 10 µM (inactive)	> 10 µM (inactive)	> 10 µM (inactive)	3.72 µM (inactive)	> 10 µM (inactive)	> 10 µM (inactive)	> 10 µM (inactive)	> 10 µM (inactive)	> 10 µM (inactive)	–
c1ccc(-c2cc(C3CO3)c3ccccc3n2)cc1 (stereo not given)	20 µM (inactive)	21.6 µM (inactive)	3.99 µM (inactive)	19.1 µM (inactive)	34.4 µM (inactive)	17.9 µM (inactive)	20.1 µM (inactive)	19.1 µM (inactive)	13.5 µM (inactive)	19.7 µM (inactive)	21.9 µM (inactive)	23.7 µM (inactive)	19.4 µM (inactive)	16.9 µM (inactive)	16.5 µM (inactive)	29.6 µM (inactive)	18.2 µM (inactive)	18.5 µM (inactive)	26.9 µM (inactive)	–
C=CCN1C(=O)/C(=C/c2ccco2)N=C1SC/C=C/C	21.6 µM (inactive)	> 100 µM (inactive)	34 µM (inactive)	50.9 µM (inactive)	32.4 µM (inactive)	51.2 µM (inactive)	49.3 µM (inactive)	21.7 µM (inactive)	29.2 µM (inactive)	43.3 µM (inactive)	28 µM (inactive)	19.5 µM (inactive)	40.4 µM (inactive)	> 100 µM (inactive)	27.5 µM (inactive)	45.9 µM (inactive)	37.7 µM (inactive)	25.9 µM (inactive)	28.2 µM (inactive)	–
COc1cc(/C=C/C=C2\CC/C(=C\C=C\c3ccc(O)c(OC)c3)C2=O)ccc1O	> 100 µM (inactive)	> 100 µM (inactive)	1.45 µM (inactive)	> 73.1 µM (inactive)	15.2 µM (inactive)	> 100 µM (inactive)	> 100 µM (inactive)	> 100 µM (inactive)	3.87 µM (inactive)	> 100 µM (inactive)	57.3 µM (inactive)	1.02 µM (active)	> 100 µM (inactive)	> 100 µM (inactive)	> 100 µM (inactive)	0.305 µM (active)	> 97.3 µM (inactive)	> 100 µM (inactive)	7.41 µM (inactive)	–
CCCN(CCC)c1c([N+](=O)[O-])cc(C(N)=O)cc1[N+](=O)[O-]	–	> 100 µM (inactive)	36.7 µM (inactive)	> 100 µM (inactive)	31.1 µM (inactive)	> 100 µM (inactive)	81.8 µM (inactive)	–	–	–	> 100 µM (inactive)	37 µM (inactive)	> 100 µM (inactive)	–	> 100 µM (inactive)	39.1 µM (inactive)	36.3 µM (inactive)	–	27.8 µM (inactive)	71.9 µM (inactive)
NP(=O)(Oc1c2occc2cc2ccc(=O)oc12)N(CCCl)CCCl (stereo not given)	49.1 µM (inactive)	> 100 µM (inactive)	> 100 µM (inactive)	> 100 µM (inactive)	> 100 µM (inactive)	> 100 µM (inactive)	62.2 µM (inactive)	> 100 µM (inactive)	0.0611 µM (active)	> 100 µM (inactive)	89.7 µM (inactive)	28.8 µM (inactive)	> 100 µM (inactive)	> 100 µM (inactive)	> 100 µM (inactive)	45.2 µM (inactive)	> 100 µM (inactive)	> 100 µM (inactive)	70.1 µM (inactive)	–
CC(C)CC(NC(=O)OCc1ccccc1)C(=O)NC(Cc1ccccc1)C(=O)CCl (stereo not drawn) (Cbz-Leu-Phe-CH2Cl; configuration not given here)	1.89 µM (inactive)	1.82 µM (inactive)	1.38 µM (inactive)	2.03 µM (inactive)	0.7 µM (active)	2 µM (inactive)	15.9 µM (inactive)	1.56 µM (inactive)	1.7 µM (inactive)	23.6 µM (inactive)	1.61 µM (inactive)	0.664 µM (active)	2.68 µM (inactive)	> 100 µM (inactive)	1.68 µM (inactive)	0.204 µM (active)	18.6 µM (inactive)	2.71 µM (inactive)	1.33 µM (inactive)	–
Cc1cc2cc3cc(C)c(N)cc3nc2cc1N [ACRIDINE YELLOW]	0.726 µM (active)	0.635 µM (active)	0.271 µM (active)	0.794 µM (active)	0.687 µM (active)	0.244 µM (active)	0.509 µM (active)	1.57 µM (inactive)	1.15 µM (inactive)	0.619 µM (active)	0.217 µM (active)	0.237 µM (active)	0.359 µM (active)	0.647 µM (active)	0.208 µM (active)	0.383 µM (active)	0.535 µM (active)	0.942 µM (active)	0.789 µM (active)	–
